Measured values as given in ChEMBL document CHEMBL1909046, “DrugMatrix in vitro pharmacology data”.

Key:
Cytochrome P450 2A6 = target: T1, Cytochrome P450 2A6 (Homo sapiens, UniProt P11509); details: bti-tn-5b1-4; note: in other assays of this panel Not Active means under 50% inhibition at 10 µM
T1 sequence (P11509 whole entry): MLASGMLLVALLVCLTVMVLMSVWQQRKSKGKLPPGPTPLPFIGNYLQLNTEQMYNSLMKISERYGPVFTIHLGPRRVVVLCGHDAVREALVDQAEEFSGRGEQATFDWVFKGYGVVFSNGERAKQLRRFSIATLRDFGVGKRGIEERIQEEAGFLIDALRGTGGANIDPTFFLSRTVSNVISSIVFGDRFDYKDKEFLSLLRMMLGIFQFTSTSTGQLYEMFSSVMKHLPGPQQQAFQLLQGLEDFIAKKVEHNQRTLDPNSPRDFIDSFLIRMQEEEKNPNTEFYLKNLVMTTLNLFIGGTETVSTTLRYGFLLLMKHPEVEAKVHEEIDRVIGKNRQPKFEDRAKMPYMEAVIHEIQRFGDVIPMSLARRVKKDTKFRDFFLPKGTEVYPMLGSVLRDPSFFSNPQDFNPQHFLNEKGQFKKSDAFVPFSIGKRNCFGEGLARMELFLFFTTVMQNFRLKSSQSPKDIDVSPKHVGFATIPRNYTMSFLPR

[1] = target: T2, Alpha-2A adrenergic receptor (Homo sapiens, UniProt P08913); format: cell membranes, Sf9, Membrane; details: sf9; note: in other assays of this panel Not Active means under 50% inhibition at 10 µM
T2 sequence (P08913 whole entry): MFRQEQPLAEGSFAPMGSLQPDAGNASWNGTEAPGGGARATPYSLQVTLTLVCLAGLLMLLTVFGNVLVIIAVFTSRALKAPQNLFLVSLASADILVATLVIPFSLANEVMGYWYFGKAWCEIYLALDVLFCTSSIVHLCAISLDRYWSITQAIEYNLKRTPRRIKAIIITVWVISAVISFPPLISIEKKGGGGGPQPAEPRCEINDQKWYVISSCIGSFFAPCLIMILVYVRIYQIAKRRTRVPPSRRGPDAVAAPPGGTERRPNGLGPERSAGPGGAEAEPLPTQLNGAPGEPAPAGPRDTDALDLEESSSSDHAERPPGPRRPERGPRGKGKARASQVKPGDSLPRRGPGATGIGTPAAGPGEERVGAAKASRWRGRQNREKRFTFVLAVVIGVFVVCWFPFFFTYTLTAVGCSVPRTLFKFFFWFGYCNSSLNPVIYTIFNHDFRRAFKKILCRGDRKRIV

[2] = target: Receptor tyrosine-protein kinase erbB-2 (Homo sapiens, UniProt P04626); assay: biochemical; format: cell-based, Insect cells; details: insect cells;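 note: inhibition of HER2 kinase enzyme activity, measured with Poly(Glu:Tyr) as the phosphorylation substrate; in other assays of this panel Not Active means under 50% inhibition at 10 µM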
[3] = target: Aldo-keto reductase family 1 member B1 (Rattus norvegicus, UniProt P07943); format: tissue-based, Lens of camera-type eye;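 note: inhibition of aldose reductase enzyme activity, measured with DL-glyceraldehyde as the substrate; in other assays of this panel Not Active means under 50% inhibition at 10 µM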
[4] = target: Matrix metalloproteinase-9 (Homo sapiens, UniProt P14780); format: cell-based
Caspase-1 = target: T3, Caspase-1 (Homo sapiens, UniProt P29466); set-up: species or system Escherichia coli
T3 sequence (P29466 whole entry): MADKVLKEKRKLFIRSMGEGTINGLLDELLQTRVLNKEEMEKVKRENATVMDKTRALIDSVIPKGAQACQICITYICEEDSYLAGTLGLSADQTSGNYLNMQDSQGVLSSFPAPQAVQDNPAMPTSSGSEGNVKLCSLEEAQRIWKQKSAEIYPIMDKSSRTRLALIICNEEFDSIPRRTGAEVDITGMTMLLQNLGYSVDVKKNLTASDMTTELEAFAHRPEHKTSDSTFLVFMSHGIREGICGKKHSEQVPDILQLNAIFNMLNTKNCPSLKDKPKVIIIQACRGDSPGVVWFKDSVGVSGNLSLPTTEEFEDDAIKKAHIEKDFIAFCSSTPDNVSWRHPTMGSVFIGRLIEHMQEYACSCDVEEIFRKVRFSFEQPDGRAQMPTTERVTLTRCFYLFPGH

[5] = DRUGMATRIX: Glutamate, Kainate radioligand binding (ligand: [3H] Kainic acid); format: cell membranes, Rattus norvegicus, Wistar, Brain, Membrane; details: Not Active = under 50% inhibition at 10 µM
[6] = target: T4, Angiotensin-converting enzyme (Oryctolagus cuniculus, UniProt P12822); assay: biochemical; format: tissue-based, Lung
T4 sequence (P12822 whole entry): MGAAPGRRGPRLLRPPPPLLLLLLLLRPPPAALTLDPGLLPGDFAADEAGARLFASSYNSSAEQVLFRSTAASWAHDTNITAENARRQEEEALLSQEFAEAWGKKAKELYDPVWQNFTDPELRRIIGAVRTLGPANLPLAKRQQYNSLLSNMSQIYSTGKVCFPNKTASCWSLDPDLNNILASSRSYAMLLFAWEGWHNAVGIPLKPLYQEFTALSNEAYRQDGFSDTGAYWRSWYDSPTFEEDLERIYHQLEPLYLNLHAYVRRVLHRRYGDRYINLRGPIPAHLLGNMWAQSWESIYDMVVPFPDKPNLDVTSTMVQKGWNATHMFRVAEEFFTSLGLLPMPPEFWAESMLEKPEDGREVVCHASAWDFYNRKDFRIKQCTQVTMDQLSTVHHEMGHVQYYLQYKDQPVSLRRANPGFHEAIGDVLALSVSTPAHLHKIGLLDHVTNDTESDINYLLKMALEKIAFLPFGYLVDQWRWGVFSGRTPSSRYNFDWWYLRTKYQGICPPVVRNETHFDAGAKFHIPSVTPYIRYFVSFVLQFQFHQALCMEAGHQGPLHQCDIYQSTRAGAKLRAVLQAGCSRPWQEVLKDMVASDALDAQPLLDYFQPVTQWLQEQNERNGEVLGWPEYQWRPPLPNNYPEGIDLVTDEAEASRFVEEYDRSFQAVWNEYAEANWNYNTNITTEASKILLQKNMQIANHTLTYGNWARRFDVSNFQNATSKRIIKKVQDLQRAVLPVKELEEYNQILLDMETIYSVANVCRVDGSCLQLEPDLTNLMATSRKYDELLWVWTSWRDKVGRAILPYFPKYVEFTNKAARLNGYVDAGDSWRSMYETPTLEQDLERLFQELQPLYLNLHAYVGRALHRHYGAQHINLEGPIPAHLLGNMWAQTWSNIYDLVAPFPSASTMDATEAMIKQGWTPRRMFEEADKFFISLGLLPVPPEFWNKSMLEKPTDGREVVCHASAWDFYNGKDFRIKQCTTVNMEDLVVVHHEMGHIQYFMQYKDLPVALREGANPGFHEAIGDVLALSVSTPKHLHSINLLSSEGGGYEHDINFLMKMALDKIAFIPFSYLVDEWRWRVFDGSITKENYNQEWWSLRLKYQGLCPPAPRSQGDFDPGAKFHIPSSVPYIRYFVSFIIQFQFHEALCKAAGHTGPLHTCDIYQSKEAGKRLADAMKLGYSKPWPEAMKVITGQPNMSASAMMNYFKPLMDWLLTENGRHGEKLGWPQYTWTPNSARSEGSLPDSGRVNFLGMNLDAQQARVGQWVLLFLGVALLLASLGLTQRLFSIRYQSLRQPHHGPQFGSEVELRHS

Chain of Receptor tyrosine-protein kinase erbB-2 (P04626 whole entry): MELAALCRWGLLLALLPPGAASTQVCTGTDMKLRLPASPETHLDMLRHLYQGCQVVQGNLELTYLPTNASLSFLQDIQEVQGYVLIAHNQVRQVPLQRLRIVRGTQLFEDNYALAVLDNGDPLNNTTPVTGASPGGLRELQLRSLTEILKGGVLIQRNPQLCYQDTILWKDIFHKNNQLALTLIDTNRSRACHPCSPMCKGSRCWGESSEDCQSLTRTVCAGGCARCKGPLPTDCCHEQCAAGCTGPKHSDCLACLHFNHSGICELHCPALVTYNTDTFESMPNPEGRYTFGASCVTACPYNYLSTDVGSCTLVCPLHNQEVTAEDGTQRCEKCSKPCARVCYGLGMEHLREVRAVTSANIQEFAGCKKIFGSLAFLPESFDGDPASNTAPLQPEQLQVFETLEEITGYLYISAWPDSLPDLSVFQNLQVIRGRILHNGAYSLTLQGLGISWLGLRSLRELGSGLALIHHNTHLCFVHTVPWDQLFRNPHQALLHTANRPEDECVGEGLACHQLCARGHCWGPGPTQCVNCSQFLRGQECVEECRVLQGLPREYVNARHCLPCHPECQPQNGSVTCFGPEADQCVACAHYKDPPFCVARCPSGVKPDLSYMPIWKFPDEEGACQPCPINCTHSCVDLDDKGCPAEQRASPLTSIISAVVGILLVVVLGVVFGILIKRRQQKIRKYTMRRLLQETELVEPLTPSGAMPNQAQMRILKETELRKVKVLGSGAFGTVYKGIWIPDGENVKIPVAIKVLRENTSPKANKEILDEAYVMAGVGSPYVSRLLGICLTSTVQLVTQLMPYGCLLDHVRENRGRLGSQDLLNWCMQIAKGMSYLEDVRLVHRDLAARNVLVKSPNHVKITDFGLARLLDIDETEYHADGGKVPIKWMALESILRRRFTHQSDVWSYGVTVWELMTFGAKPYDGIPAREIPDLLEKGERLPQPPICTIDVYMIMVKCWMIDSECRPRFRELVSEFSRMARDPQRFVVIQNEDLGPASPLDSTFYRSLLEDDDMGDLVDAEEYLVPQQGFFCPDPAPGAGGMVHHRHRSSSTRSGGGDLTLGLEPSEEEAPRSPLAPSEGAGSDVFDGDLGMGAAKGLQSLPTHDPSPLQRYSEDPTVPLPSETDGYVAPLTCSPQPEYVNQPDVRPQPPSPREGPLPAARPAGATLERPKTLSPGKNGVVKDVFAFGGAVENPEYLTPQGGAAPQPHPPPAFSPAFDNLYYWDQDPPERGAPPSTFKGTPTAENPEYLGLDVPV
Chain of Matrix metalloproteinase-9 (P14780 whole entry): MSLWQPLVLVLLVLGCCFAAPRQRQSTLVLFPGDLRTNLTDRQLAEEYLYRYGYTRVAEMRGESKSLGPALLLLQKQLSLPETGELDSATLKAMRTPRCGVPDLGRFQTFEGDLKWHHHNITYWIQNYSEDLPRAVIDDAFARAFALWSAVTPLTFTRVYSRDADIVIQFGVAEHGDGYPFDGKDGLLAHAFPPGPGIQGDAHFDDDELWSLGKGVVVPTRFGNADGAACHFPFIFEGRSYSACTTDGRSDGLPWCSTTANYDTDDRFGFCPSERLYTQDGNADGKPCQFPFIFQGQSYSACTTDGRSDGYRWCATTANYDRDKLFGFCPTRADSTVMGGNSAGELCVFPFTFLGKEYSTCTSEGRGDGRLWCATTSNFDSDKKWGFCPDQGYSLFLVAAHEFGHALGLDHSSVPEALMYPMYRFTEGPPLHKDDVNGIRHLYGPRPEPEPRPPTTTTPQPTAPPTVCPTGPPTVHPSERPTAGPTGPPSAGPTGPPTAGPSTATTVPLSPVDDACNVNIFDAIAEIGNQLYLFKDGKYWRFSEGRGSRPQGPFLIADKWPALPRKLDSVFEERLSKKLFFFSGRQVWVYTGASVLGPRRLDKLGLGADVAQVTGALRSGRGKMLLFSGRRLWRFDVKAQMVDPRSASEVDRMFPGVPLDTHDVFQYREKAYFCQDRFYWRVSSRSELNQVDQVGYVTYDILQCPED

CC1=Nc2ccc(Cl)cc2S(=O)(=O)N1 [DIAZOXIDE]
Not Active: IC50 (Cytochrome P450 2A6) | Ki (Cytochrome P450 2A6) | IC50 [1] | IC50 [2] | IC50 [3] | IC50 [4] | IC50 (Caspase-1) | IC50 [5] | Ki [5] | IC50 [6]

COC(=O)[C@H](c1ccccc1Cl)N1CCc2sccc2C1 [CLOPIDOGREL]
Not Active: IC50 (Cytochrome P450 2A6) | Ki (Cytochrome P450 2A6) | IC50 [1] | IC50 [2] | IC50 [3] | IC50 [4] | IC50 (Caspase-1) | IC50 [5] | Ki [5] | IC50 [6]

O=c1cc(-c2ccccc2)oc2c1ccc1ccccc12 [ALPHA-NAPHTHOFLAVONE]
Not Active: IC50 (Cytochrome P450 2A6) | Ki (Cytochrome P450 2A6) | IC50 [1] | IC50 [2] | IC50 [3] | IC50 [4] | IC50 (Caspase-1) | IC50 [5] | Ki [5] | IC50 [6]

C=C1[C@@H]2CCC3[C@@](CC[C@@H]4[C@H](C(=O)O)C[C@@H](O[C@@H]5O[C@H](CO)[C@@H](OS(=O)(=O)[O-])[C@H](OS(=O)(=O)[O-])[C@H]5OC(=O)CC(C)C)C[C@@]34C)(C2)[C@@H]1O.[K+].[K+] (stereo not given in full) [ATRACTYLOSIDE]
Not Active: IC50 (Cytochrome P450 2A6) | Ki (Cytochrome P450 2A6) | IC50 [1] | IC50 [2] | IC50 [3] | IC50 [4] | IC50 (Caspase-1) | IC50 [5] | Ki [5] | IC50 [6]

NS(=O)(=O)c1cc2c(cc1Cl)NCNS2(=O)=O [HYDROCHLOROTHIAZIDE]
Not Active: IC50 (Cytochrome P450 2A6) | Ki (Cytochrome P450 2A6) | IC50 [1] | IC50 [2] | IC50 [3] | IC50 [4] | IC50 (Caspase-1) | IC50 [5] | Ki [5] | IC50 [6]

Fc1ccc([C@@H]2CCNC[C@H]2COc2ccc3c(c2)OCO3)cc1 [PAROXETINE]
Not Active: IC50 (Cytochrome P450 2A6) | Ki (Cytochrome P450 2A6) | IC50 [1] | IC50 [2] | IC50 [3] | IC50 [4] | IC50 (Caspase-1) | IC50 [5] | Ki [5] | IC50 [6]

COc1c(N2CCNC(C)C2)c(F)cc2c(=O)c(C(=O)O)cn(C3CC3)c12 (stereo not given) [GATIFLOXACIN]
Not Active: IC50 (Cytochrome P450 2A6) | Ki (Cytochrome P450 2A6) | IC50 [1] | IC50 [2] | IC50 [3] | IC50 [4] | IC50 (Caspase-1) | IC50 [5] | Ki [5] | IC50 [6]

CC[N+](CC)(CC)CCOc1cccc(OCC[N+](CC)(CC)CC)c1OCC[N+](CC)(CC)CC.[I-].[I-].[I-] [GALLAMINE TRIETHIODIDE]
Not Active: IC50 (Cytochrome P450 2A6) | Ki (Cytochrome P450 2A6) | IC50 [1] | IC50 [2] | IC50 [3] | IC50 [4] | IC50 (Caspase-1) | IC50 [5] | Ki [5] | IC50 [6]

Nc1nc(=O)[nH]cc1F [FLUCYTOSINE]
Not Active: IC50 (Cytochrome P450 2A6) | Ki (Cytochrome P450 2A6) | IC50 [1] | IC50 [2] | IC50 [3] | IC50 [4] | IC50 (Caspase-1) | IC50 [5] | Ki [5] | IC50 [6]

O=c1[nH]cc(F)c(=O)[nH]1 [FLUOROURACIL]
Not Active: IC50 (Cytochrome P450 2A6) | Ki (Cytochrome P450 2A6) | IC50 [1] | IC50 [2] | IC50 [3] | IC50 [4] | IC50 (Caspase-1) | IC50 [5] | Ki [5] | IC50 [6]

O=C(O)c1cn(C2CC2)c2cc(N3CCNCC3)c(F)cc2c1=O [CIPROFLOXACIN]
Not Active: IC50 (Cytochrome P450 2A6) | Ki (Cytochrome P450 2A6) | IC50 [1] | IC50 [2] | IC50 [3] | IC50 [4] | IC50 (Caspase-1) | IC50 [5] | Ki [5] | IC50 [6]

OCc1ccccc1 [BENZYL ALCOHOL]
Not Active: IC50 (Cytochrome P450 2A6) | Ki (Cytochrome P450 2A6) | IC50 [1] | IC50 [2] | IC50 [3] | IC50 [4] | IC50 (Caspase-1) | IC50 [5] | Ki [5] | IC50 [6]
